Reference: patent US10813935B2, “Methods and compositions for treating drug resistance in cancer” (UNIVERSITY OF SOUTH FLORIDA, priority 2017, dated 2020)

Assays:
[1] = test system: H1975, H1650 and H1299 human lung cancer cell lines (parental and drug resistant); experiment: Drug sensitivity in parental and DR cell lines, Cell Titer Glo cell viability; type: cell-based
Description: To investigate drug resistance to EGFR TKIs, we developed lapatinib resistant human lung cancer cell lines as model for de novo drug resistance. To derive drug resistant (DR) cells, H1975 human lung cancer cells, that carry L858R and T790M point mutations in exons 20 and 21 of EGFR, were grown in a static concentration of lapatinib for up to 30 days. We also developed EGFR TKI resistant H1650 and H1299 human lung cancer cell lines to confirm any potential findings in cell lines with different EGFR mutations, thereby enhancing the reproducibility and relevance of the work. The drug sensitivity of the parental and DR cells on both the monolayer and the 3D scaffold were determined by testing a panel of standard-of-care chemotherapeutics along with EGFR TKIs. Drug sensitivity in parental- and DR-cell lines were determined. Cells were treated in triplicates with indicated concentrations of the identified drug for 72 hours in monolayer cultures and for 48 hours in scaffold cultures. For cells grown on the scaffold, drugs were added on day 3, as compared to 24 hours for monolayer. Cell viability was determined using Cell Titer Glo assay (Promega). Average luminescence as a percentage of control in lapatinib treated cultures on the monolayer (Blue) and the scaffold (Red) is shown. Experiments were repeated at least two times. […]

H1650 cells = experiment: Development of lapatinib resistance in parental H1650 cells, bright field microscopy; type: cell-based, human; settings: drugs added at plating, 72 hours
Description: Drug-resistant cells (DR) were compared to parental cell lines. 500,000 H1650 cells were plated in 1 well of a 6-well plate and treated with the indicated drugs at the time of plating. They were allowed to grow for 72 hours.

p-EGFR = experiment: Western blot of whole cell lysates (cleaved EGFR, p-EGFR, CYP51A1) after drug treatment; type: cell-based, human; settings: treated 48 hours
Description: Cells were treated with lapatinib or ketoconazole for 48 hours. The expression of cleaved EGFR, p-EGFR, CYP51A1 were examined using western blotting of the whole cell lysates. β-Actin was included as a loading control.

| Structure (SMILES) | resistance of EGFR TKI resistant cells to other anti-cancer agents [1] | development of lapatinib resistance in parental H1650 cells (H1650 cells) | p-EGFR in the H1650-DR cells (p-EGFR; H1650-DR cells, western blot) | EGFR downstream signaling (p-EGFR; western blot of whole cell lysates) |
| --- | --- | --- | --- | --- |
| Nc1ccn([C@@H]2O[C@H](CO)[C@@H](O)C2(F)F)c(=O)n1 [gemcitabine] | resistant |  |  |  |
| CC(=O)N1CCN(c2ccc(OCC3COC(Cn4ccnc4)(c4ccc(Cl)cc4Cl)O3)cc2)CC1 (centres unmarked) [ketoconazole] |  | alleviated development of lapatinib resistant | inhibited p-EGFR | induced lowering of EGFR downstream signaling |
| CC(=O)O[C@H]1C(=O)[C@@]2(C)[C@H]([C@H](OC(=O)c3ccccc3)[C@]3(O)C[C@H](OC(=O)[C@H](O)[C@@H](NC(=O)c4ccccc4)c4ccccc4)C(C)=C1C3(C)C)[C@]1(OC(C)=O)CO[C@@H]1C[C@@H]2O [taxol] | resistant |  |  |  |
